Results: patent US20240122180A1, “FUNGICIDAL HALOMETHYL KETONES AND HYDRATES AND THEIR MIXTURES” (FMC Corporation, priority 2020, published 2024)
Marks after values point to notes of the source that are not given here.

Experiments:
[1] = test system: Uncinula necator (the causal agent of grape powdery mildew); assay: Test C: preventive spray on grape seedlings, disease rating (100 = 100% control; * 50 ppm, ** 10 ppm, *** 250 ppm); format: in vivo; details: 100 = 100% disease control; for pest or weed control at 250 ppm / Test C disease control rating: 250 ppm test suspension, 0 = no control
How it was run: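 Grape seedlings sprayed to run-off with compound suspended in acetone/water (50/50) with 250 ppm PEG400, then inoculated next day with Uncinula necator spores. Kept at 20 °C for 12 days before disease rating, where 100 is full control and 0 none, relative to untreated controls.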

[2] = test system: Zymoseptoria tritici (the causal agent of wheat leaf blotch); assay: Test D: preventive spray on wheat seedlings, disease rating (100 = 100% control; * 50 ppm, ** 10 ppm, *** 250 ppm); format: in vivo; details: 250 ppm test suspension, 100 = 100% disease control; for pest or weed control at 250 ppm: Zymoseptoria tritici
How it was run: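 Compounds first dissolved in acetone (3% of final volume), then suspended in 50/50 acetone/water with 250 ppm PEG400 and sprayed to run-off on wheat seedlings; Z. tritici spores inoculated next day. Incubated saturated at 24° C. 48 h, then 20° C. 17 days; disease control rated 0–100 versus controls.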

[3] = test system: Blumeria graminis f. sp. tritici (the causal agent of wheat powdery mildew); assay: Test E: preventive spray on wheat seedlings, visual disease rating (100 = 100% control; * 50 ppm, ** 10 ppm, *** 250 ppm); format: in vivo; details: 250 ppm test suspension, 100 = 100% disease control; for pest or weed control at 250 ppm: Blumeria graminis
How it was run: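 Test suspension (3% acetone, acetone/water 50/50, 250 ppm PEG400) sprayed to run-off on wheat seedlings; inoculated next day with powdery mildew spore dust and kept 8 days at 20 °C. Visual rating, 100 = full and 0 = no control relative to untreated.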

[4] = test system: Phakopsora pachyrhizi (the causal agent of Asian soybean rust); assay: Test F: Compound 32 or 64 alone and in mixtures on soybean seedlings, observed (Obsd) and Colby expected (Exp) disease control; format: in vivo; details: for pest or weed control at 1.422 ppm: Compound 32 1.422 ppm alone; for pest or weed control at 2.276 ppm: Compound 32 2.276 ppm alone
[5] = test system: Puccinia recondita f. sp. tritici (the causal agent of wheat leaf rust); assay: Test B: preventive spray on wheat seedlings, disease rating (100 = 100% control; * 50 ppm, ** 10 ppm, *** 250 ppm); format: in vivo; details: 100 = 100% disease control; for pest or weed control at 50 ppm / pest or weed control at 10 ppm: Puccinia recondita
How it was run: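 Wheat seedlings sprayed to run-off with compound in acetone/water (50/50) containing 250 ppm PEG400, inoculated next day with Puccinia recondita f. sp. tritici spores. Held 24 h saturated at 20° C, then 6 days at 20° C; disease control rated 0–100 relative to controls.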

[6] = test system: Phakopsora pachyrhizi (the causal agent of Asian soybean rust); assay: Test A: preventive spray on soybean seedlings, visual disease rating (100 = 100% control; * 50 ppm, ** 10 ppm, *** 250 ppm); format: in vivo; details: 100 = 100% disease control, 0 = no control
How it was run: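 Soybean seedlings sprayed to run-off with compound suspended in acetone/water with 250 ppm PEG400 surfactant, inoculated next day with P. pachyrhizi spores. Kept 24 h saturated at 22 °C, then 8 days at 22 °C before visual rating of disease control (0-100) relative to controls.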

[7] = Phakopsora pachyrhizi, Table B-1
[8] = Phakopsora pachyrhizi, Table C-1
[9] = Phakopsora pachyrhizi, Table D-1
[10] = Phakopsora pachyrhizi, Table F-1
[11] = Phakopsora pachyrhizi, Table G-1
[12] = Phakopsora pachyrhizi, Table H-1
[13] = Phakopsora pachyrhizi, Table I-1
[14] = 10 ppm test suspension, wheat seedlings
[15] = 50 ppm test suspension, 0 = no control
[16] = Phakopsora pachyrhizi, 10 ppm test suspension
[17] = 10 ppm test suspension, 0 = no control

With `CCOC(=O)c1cnn(Cc2ccc(OCC3(C(F)(F)F)OCCO3)cc2)c1` [Compound 32, ethyl 1-[[4-[[2-(trifluoromethyl)-1,3-dioxolan-2-yl]methoxy]phenyl]methyl]-1H-pyrazole-4-carboxylate] as the compound, how does the pest or weed control at 10 ppm ([1]; Erysiphe necator, 10 ppm test suspension (**), grape seedlings) read?
The pest or weed control at 10 ppm was 100%.

What about the pest or weed control at 250 ppm ([2]; wheat seedlings) of the same compound?
Its pest or weed control at 250 ppm is 89%.

What about the pest or weed control at 250 ppm ([3]; wheat seedlings) of the same compound?
The pest or weed control at 250 ppm was 97%.

And the pest or weed control at 1.422 ppm ([4]; Table E-1)?
The pest or weed control at 1.422 ppm was 78%.

What about the pest or weed control at 2.276 ppm ([4]; Table E-1) of the same compound?
Its pest or weed control at 2.276 ppm is 80%.

What about the pest or weed control at 1.422 ppm [4, 7] of the same compound?
Its pest or weed control at 1.422 ppm is 55%.

What about the pest or weed control at 1.422 ppm [4, 8] of the same compound?
The pest or weed control at 1.422 ppm was 39%.

And the pest or weed control at 1.422 ppm [4, 9]?
The pest or weed control at 1.422 ppm was 52%.

What about the pest or weed control at 1.422 ppm [4, 10] of the same compound?
Its pest or weed control at 1.422 ppm is 75%.

And the pest or weed control at 1.422 ppm [4, 11]?
The pest or weed control at 1.422 ppm was 39%.

And the pest or weed control at 1.422 ppm [4, 12]?
The pest or weed control at 1.422 ppm was 69%.

What about the pest or weed control at 1.422 ppm [4, 13] of the same compound?
The pest or weed control at 1.422 ppm was 63%.

What about the pest or weed control at 2.276 ppm [4, 7] of the same compound?
Its pest or weed control at 2.276 ppm is 64%.

And the pest or weed control at 2.276 ppm [4, 8]?
The pest or weed control at 2.276 ppm was 44%.

And the pest or weed control at 2.276 ppm [4, 9]?
Its pest or weed control at 2.276 ppm is 60%.

And the pest or weed control at 2.276 ppm [4, 10]?
The pest or weed control at 2.276 ppm was 77%.

And the pest or weed control at 2.276 ppm [4, 11]?
Its pest or weed control at 2.276 ppm is 61%.

What about the pest or weed control at 2.276 ppm [4, 12] of the same compound?
The pest or weed control at 2.276 ppm was 63%.

And the pest or weed control at 2.276 ppm [4, 13]?
Its pest or weed control at 2.276 ppm is 71%.

What about the pest or weed control at 50 ppm ([5]; 50 ppm test suspension, wheat seedlings) of the same compound?
The pest or weed control at 50 ppm was 68%.

Which results are given for `O=C(NCC1CC1)c1csc(Cc2ccc(OCC3(C(F)(F)F)OCCO3)cc2)n1` [Compound 71, N-(cyclopropylmethyl)-2-[[4-[[2-(trifluoromethyl)-1,3-dioxolan-2-yl]methoxy]phenyl]-methyl]thiazole-4-carboxamide]?
melting point: 88 to 92 °C; pest or weed control at 10 ppm [5, 14]: 96%

Which pest or weed control at 250 ppm ([2]; wheat seedlings) does the source give for `CCO/C(=C\Oc1ccc(Cn2cc(C(=O)OCc3ccccc3)cn2)cc1)C(F)(F)F` [Compound 186, phenylmethyl 1-[[4-[[(1Z)-2-ethoxy-3,3,3-trifluoro-1-propen-1-yl]oxy]phenyl]methyl]-1H-pyrazole-4-carboxylate] here?
The pest or weed control at 250 ppm was 9%.

What about the pest or weed control at 250 ppm ([3]; wheat seedlings) of the same compound?
The pest or weed control at 250 ppm was 84%.

And the melting point?
The melting point was 63 to 67 °C.

What about the pest or weed control at 10 ppm [5, 14] of the same compound?
Its pest or weed control at 10 ppm is 0%.

Which results are given for `CCOC(=O)c1cnn(Cc2cnn(CC(O)(O)C(F)(F)F)c2)c1` [compound 368]?
pest or weed control at 250 ppm ([1]; Erysiphe necator): 33%; pest or weed control at 250 ppm ([2]; 0 = no control): 0%; pest or weed control at 250 ppm ([3]; 0 = no control): 0%; pest or weed control at 50 ppm ([6]; Phakopsora pachyrhizi, 50 ppm test suspension): 0%; melting point: 81 to 84 °C; pest or weed control at 50 ppm [5, 15]: 0%

Which results are given for `OC(O)(COc1cccc(Cn2cc(Br)cn2)c1)C(F)(F)F` [compound 386]?
pest or weed control at 10 ppm [6, 16]: 84%; melting point: 83.7 to 86.5 °C; pest or weed control at 10 ppm [5, 17]: 19%

With `CCOC(=O)c1cnn(Cc2c(F)c(F)c(OCC3(C(F)(F)F)OCCO3)c(F)c2F)c1` [compound 392] as the compound, how does the pest or weed control at 10 ppm [6, 16] read?
Its pest or weed control at 10 ppm is 97%.

What about the melting point of the same compound?
Its melting point is 59 to 62 °C.

And the pest or weed control at 10 ppm [5, 17]?
The pest or weed control at 10 ppm was 19%.

With `CCOC(=O)c1cnn(Cc2ccc(O/C=C(\OCC)C(F)(F)F)c(F)c2F)c1` [compound 430] as the compound, how does the “Test C disease control rating” value [1] read?
The value was 82*** %.

What about the “Test D disease control rating” value ([2]; 0 = no control) of the same compound?
Its value is 3*** %.

What about the “Test E disease control rating” value ([3]; 0 = no control) of the same compound?
Its value is 99*** %.

And the “Test A disease control rating” value ([6]; 50 ppm test suspension)?
Its value is 100%.

What about the “Test B disease control rating” value [5, 15] of the same compound?
Its value is 0%.

Which results are given for `CCO/C(=C\Oc1ccc(Cn2cc(C(=O)NCc3ncccn3)cn2)cc1)C(F)(F)F` [compound 435]?
Test C disease control rating [1]: 45*** %; Test D disease control rating ([2]; 0 = no control): 5*** %; Test E disease control rating ([3]; 0 = no control): 81*** %; Test A disease control rating ([6]; 50 ppm test suspension): 96%; Test B disease control rating [5, 15]: 0%

What does the source list for `CCNC(=O)c1cnn(Cc2ccc(O/C=C(\OCC)C(F)(F)F)cc2)c1` [compound 437]?
Test C disease control rating [1]: 77*** %; Test D disease control rating ([2]; 0 = no control): 78*** %; Test E disease control rating ([3]; 0 = no control): 69*** %; Test A disease control rating ([6]; 50 ppm test suspension): 77%; Test B disease control rating [5, 15]: 0%

Which results are given for `CCO/C(=C\Oc1ccc(Cn2cc(C(=O)N(CC)CC)cn2)cc1)C(F)(F)F` [compound 438]?
Test C disease control rating [1]: 59*** %; Test D disease control rating ([2]; 0 = no control): 26*** %; Test E disease control rating ([3]; 0 = no control): 98*** %; Test A disease control rating ([6]; 50 ppm test suspension): 73%; Test B disease control rating [5, 15]: 0%

Which pest or weed control at 250 ppm ([1]; Erysiphe necator) does the source give for `CCOC(=O)c1cnn(CSc2ccc(O/C=C(\OCC)C(F)(F)F)cc2)c1` [compound 457] here?
The pest or weed control at 250 ppm was 73%.

What about the pest or weed control at 250 ppm ([2]; 0 = no control) of the same compound?
The pest or weed control at 250 ppm was 7%.

And the pest or weed control at 250 ppm ([3]; 0 = no control)?
Its pest or weed control at 250 ppm is 0%.

What about the pest or weed control at 10 ppm [6, 16] of the same compound?
Its pest or weed control at 10 ppm is 89%.

And the pest or weed control at 10 ppm [5, 17]?
The pest or weed control at 10 ppm was 0%.

With `CCOC(=O)c1cnn(Cc2ccc(O/C=C(\OCC)C(F)(F)F)c(Cl)c2)c1` [compound 458] as the compound, how does the “Test C disease control rating” value [1] read?
Its value is 25*** %.

What about the “Test D disease control rating” value ([2]; 0 = no control) of the same compound?
Its value is 41*** %.

What about the “Test E disease control rating” value ([3]; 0 = no control) of the same compound?
Its value is 94*** %.

And the “Test A disease control rating” value ([6]; 10 ppm test suspension)?
Its value is 100%.

And the “Test B disease control rating” value [5, 17]?
The value was 0%.

With `CCOC(=O)c1cnn(Cc2c(F)c(F)c(O/C=C(\OCC)C(F)(F)F)c(F)c2F)c1` [compound 464] as the compound, how does the “Test C disease control rating” value [1] read?
Its value is 73*** %.

And the “Test D disease control rating” value ([2]; 0 = no control)?
Its value is 4*** %.

What about the “Test E disease control rating” value ([3]; 0 = no control) of the same compound?
The value was 99*** %.

And the “Test A disease control rating” value ([6]; 50 ppm test suspension)?
The value was 100%.

What about the “Test B disease control rating” value [5, 15] of the same compound?
Its value is 0%.
